Measured values reported in patent US20080194611A1, “Modulation of Cell Barrier Dysfunction” (priority 2005, published 2008).

Tests used:
[1] = system: Human pulmonary microvascular endothelial cell; assay type: cell-based
P. aeruginosa PA27853 = assay type: in vivo, mice; conditions: slow release morphine pellets; daily 1×10^8 cfu/ml PA27853
[2] = system: membrane protein fractions of P. aeruginosa; assay: Binding of morphine to P. aeruginosa membrane protein; parameters: species or system Pseudomonas aeruginosa
[3] = system: PA-I lectin/adhesin expression in P. aeruginosa PA27853 and PAO1
[4] = intravenously applied; cited from earlier work
[5] = methadone maintenance patients; mean dose 0.1 mg/kg intravenously; cited from earlier work
[6] = in vivo; cited from earlier work
[7] = system: PA-I lectin/adhesin expression in P. aeruginosa 27853/PLL-EGFP
[8] = target: T1, receptor tyrosine phosphatase mu (RPTPμ) (Homo sapiens, UniProt P28827); assay: RPTPμ tyrosine phosphatase activity assay; assay type: biochemical; conditions: treatment of HPMVEC
T1 construct: Treated or untreated HPAEC lysates and/or immunoprecipitated RPTPμ were analyzed for tyrosine phosphatase activity; host or cells: human pulmonary endothelial cells (HPMVEC, 'HPAEC')

[9] = cited from earlier work
S1P3 receptor = assay: Tyrosine phosphorylation (transactivation) of the S1P3 receptor; assay type: cell-based, Human
[10] = system: total endothelial cell tyrosine phosphatase activity; assay: Total cellular tyrosine phosphatase activity assay; assay type: cell-based, Human

T1 sequence (P28827 21-1452): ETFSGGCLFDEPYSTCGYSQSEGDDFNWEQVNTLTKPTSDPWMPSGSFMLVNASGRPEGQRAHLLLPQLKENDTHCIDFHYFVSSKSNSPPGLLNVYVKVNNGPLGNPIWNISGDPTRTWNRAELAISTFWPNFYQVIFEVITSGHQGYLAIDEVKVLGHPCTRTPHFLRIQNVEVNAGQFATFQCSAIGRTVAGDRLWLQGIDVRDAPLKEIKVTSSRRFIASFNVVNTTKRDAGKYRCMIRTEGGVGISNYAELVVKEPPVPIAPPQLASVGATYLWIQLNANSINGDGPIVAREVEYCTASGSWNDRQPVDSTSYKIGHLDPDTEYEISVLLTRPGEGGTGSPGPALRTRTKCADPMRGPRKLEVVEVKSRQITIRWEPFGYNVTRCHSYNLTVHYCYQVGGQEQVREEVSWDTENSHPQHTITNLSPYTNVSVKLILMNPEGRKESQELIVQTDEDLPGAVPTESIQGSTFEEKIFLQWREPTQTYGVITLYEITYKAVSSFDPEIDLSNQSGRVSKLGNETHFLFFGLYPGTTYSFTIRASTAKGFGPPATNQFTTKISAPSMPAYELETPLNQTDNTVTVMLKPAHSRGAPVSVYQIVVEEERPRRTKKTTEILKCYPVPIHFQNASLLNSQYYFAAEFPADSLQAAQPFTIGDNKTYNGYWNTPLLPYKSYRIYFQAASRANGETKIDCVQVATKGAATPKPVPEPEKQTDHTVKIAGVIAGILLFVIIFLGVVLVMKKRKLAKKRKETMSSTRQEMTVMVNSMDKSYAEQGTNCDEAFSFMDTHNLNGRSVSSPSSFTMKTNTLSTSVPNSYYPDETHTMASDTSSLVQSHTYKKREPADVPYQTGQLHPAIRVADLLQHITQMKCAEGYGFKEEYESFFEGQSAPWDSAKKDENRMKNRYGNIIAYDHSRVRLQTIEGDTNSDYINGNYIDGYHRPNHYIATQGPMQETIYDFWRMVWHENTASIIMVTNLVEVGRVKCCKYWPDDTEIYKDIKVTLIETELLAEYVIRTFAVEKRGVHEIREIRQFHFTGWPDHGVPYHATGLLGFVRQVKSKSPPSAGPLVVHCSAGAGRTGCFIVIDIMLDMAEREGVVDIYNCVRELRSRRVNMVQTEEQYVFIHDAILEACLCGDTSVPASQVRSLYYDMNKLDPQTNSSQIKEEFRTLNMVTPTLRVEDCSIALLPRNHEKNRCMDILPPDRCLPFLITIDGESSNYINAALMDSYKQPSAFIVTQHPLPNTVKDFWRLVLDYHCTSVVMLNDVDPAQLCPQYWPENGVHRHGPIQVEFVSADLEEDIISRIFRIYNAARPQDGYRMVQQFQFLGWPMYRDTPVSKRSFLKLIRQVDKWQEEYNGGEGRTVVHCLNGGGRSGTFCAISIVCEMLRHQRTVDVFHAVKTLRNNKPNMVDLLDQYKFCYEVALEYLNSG

For CN1CC[C@]23c4c5ccc(O)c4O[C@H]2[C@@H](O)C=C[C@H]3[C@H]1C5 [morphine], the “effect of agonist alone on endothelial cell barrier function (TER)” value [1] was “induced endothelial cell barrier disruption in a dose-dependent manner”, the “mice developing severe sepsis” value (P. aeruginosa PA27853) was 4/4 and the mortality (P. aeruginosa PA27853) was “significant mortality”. The “binding to membrane protein fractions” value [2] was “binds to membrane protein fractions”, the “increase in PA-I expression” value [3] was “four-fold” and the “response to express PA-I” value [3] was “induce a robust response”. The “concentration accumulated at tissue sites such as the intestinal mucosa” value [4] was no more than 100 µM.

For C[N+]1(CC2CC2)CCC23c4c5ccc(O)c4OC2C(=O)CCC3(O)C1C5 (stereo not shown) [MNTX, N-methylnaltrexone], the mean plasma levels [5] is listed as 162 ng/mL, the “crossing of the blood-brain barrier” value [6] is listed as “does not cross the blood-brain barrier” and the “effect on morphine-induced PA-I lectin/adhesin expression” value [7] is listed as “significantly attenuated”. The “MNTX protection from thrombin- and LPS-induced disruption with mOP-R silenced (siRNA)” value [1] was “little effect”, the “MNTX protection with RPTPμ silenced (siRNA)” value [1] was “inhibited the protective effects of MNTX” and the “MNTX protection with S1P3 receptor silenced (siRNA)” value [1] was “inhibited”. For the same compound, the “dose dependence of barrier protective effects” value [1] was “Decreasing the dose of MNTX below 0.1 μM attenuated its barrier protective effects”, the “effect on LPS-induced endothelial cell barrier disruption” value [1] was “attenuated endothelial cell barrier disruption” and the “effect on MS- and DAMGO-induced endothelial cell barrier disruption” value [1] was “blocked”. For the same compound, the “effect on S1P barrier enhancement” value [1] was “increased the sustained endothelial cell barrier-enhancing effect”, the “effect on ionomycin-induced endothelial cell barrier disruption” value [1] was “but not from the Ca^2+ ionophore, ionomycin” and the “effect on thrombin-induced endothelial cell barrier disruption” value [1] was “attenuated endothelial cell barrier disruption”. The “RPTPμ tyrosine phosphatase activity” value [8] was “enhanced RPTPμ tyrosine phosphatase activity”, the “lipid solubility / polarity” value [9] was “greater polarity and lower lipid solubility” and the “Src tyrosine phosphorylation of isolated S1P3 receptor, in vitro” value (S1P3 receptor; RPTPμ from MNTX-treated (1 hour) endothelial cells) was “blocked Src tyrosine phosphorylation of the S1P3 receptor”. For the same compound, the “effect on agonist-induced S1P3 receptor transactivation” value (S1P3 receptor; pre-treatment) was “completely blocked”, the “total endothelial cell tyrosine phosphatase activity” value [10] was “increased total endothelial cell tyrosine phosphatase activity” and the “MNTX-mediated increase of total tyrosine phosphatase activity with RPTPμ silenced” value ([10]; siRNA) was “significantly attenuated”.
